Test results taken from PMC9098178, “SAR of Novel 3-Arylisoquinolinones: meta-Substitution on the Aryl Ring Dramatically Enhances Antiproliferative Activity through Binding to Microtubules” (Journal of Medicinal Chemistry, 2022).

Columns and labels:
[1] = tested on: MDA-MB-231; assay: SRB antiproliferative assay, MDA-MB-231; format: cell-based, human; conditions: Homo sapiens, MDA-MB-231, 96 h treatment, mean ± SEM, read-out: IC50 MDA-MB-231
Experimental: (§1) In light of this substantial change in activity between the meta and para compounds, a more comprehensive analysis of the antiproliferative activity was performed for the meta-/para-3-arylisoquinolinone pairs 2 and 3, 4, and 5, as well as 6. A panel of breast (MDA-MB-231), liver (HepG2, SNU423), lung (A549), and colon (HCT116) cancer cell lines were treated with the five 3-arylisoquinolinone analogs for 96 h followed by the SRB assay. The dose–response curves (including those for MCF-7) are presented in Figure S22, and their relevant IC50 values are listed in Table 1. […] The differential activity between meta- and para-3-arylisoquinolinones was reproduced in the National Cancer Institute (NCI) one-dose screen using a panel of 59 cancer cell lines (Figure S23).
(§2) All cell lines used in the study were human-derived and purchased from ATCC (Manassas, USA). Breast adenocarcinoma MCF-7 and MDA-MB-231 cell lines were cultured in DMEM. Hepatocellular carcinoma HepG2 and SNU423 cell lines were grown in MEME combined with 1% (v/v) nonessential amino acids and RPMI supplemented with 2 mM glutamine, respectively. Lung adenocarcinoma A549 and colorectal carcinoma HCT116 cells were grown in RPMI (+2 mM glutamine). All previous media were further supplemented with 10% heat-inactivated fetal bovine serum. The immortalized, normal liver THLE-3 cells were grown in BEGM (Lonza, Cat# CC-3170) onto precoated vessels according to ATCC’s instructions. Human umbilical vein endothelial cells (HUVECs) were cultured in EGM-2 (Lonza, Cat# CC-3162). All of the cells were maintained at 37 °C and 5% CO2 in a humidified incubator.
(§3) Screening of the antiproliferative activity of 3-arylisoquinolinones was performed using the SRB assay as previously described.[56] Exponentially growing HepG2, SNU423, MDA-MB-231, MCF-7, A549, HCT116, THLE-3, and HUVECs were seeded in 96-well plates at densities of 3000, 2000, 1500, 2500, 1000, 1000, 4000, and 4000 cells/well, respectively. These densities were experimentally selected so that the DMSO-treated cells (control) were approximately 80–90% confluent at the assay’s endpoint, and their optical density (OD) values fell within the assay’s linear range. After overnight incubation, the cells were treated with a range of concentrations of the respective compounds for 96 h, 24 h followed by 72 h compound-free incubation or 24 h (for HUVECs only). After treatment, cell monolayers were fixed with 10% (w/v) trichloroacetic acid for 1 h at 4 °C, washed, and dried. Then, the cells were exposed to 0.4% (w/v) SRB dye (prepared in 1% (v/v) acetic acid; Botium, Cat# 80100) for 15 min followed by several 1% acetic acid washing and then drying. Finally, the cellular protein-bound SRB was thoroughly dissolved in 10 mM Tris base, and the OD values were read at 510 nm using a plate reader (μQuant Microplate Spectrophotometer, Biotek, U.K.) coupled with Gen5 software (BioTek, U.K.). Compound-induced changes in cell growth were inferred from changes in OD values. Cell growth was calculated using the following formula: cell growth (%) = (ODtest/ODcontrol) × 100.

[2] = tested on: A549; assay: SRB antiproliferative assay, A549; format: cell-based, human; conditions: Homo sapiens, A549, 96 h treatment, mean ± SEM, read-out: IC50 A549
Experimental: as §1, §2, §3

[3] = tested on: HUVECs; assay: SRB assay of endothelial cell proliferation; format: cell-based; conditions: 24 h, up to 10 μM
Experimental: Compound 4 was further elucidated whether it blocked the formation of capillary-like tubes and disrupted the already existing tubes of HUVECs as a result of inducing endothelial cell death. Accordingly, the growth of HUVECs treated with 4 was investigated using the SRB assay. HUVECs were plated on 96-well plates without prior coating with Matrigel and then exposed to different concentrations of 4 for 24 h.
All cell lines used in the study were human-derived and purchased from ATCC (Manassas, USA). Breast adenocarcinoma MCF-7 and MDA-MB-231 cell lines were cultured in DMEM. Hepatocellular carcinoma HepG2 and SNU423 cell lines were grown in MEME combined with 1% (v/v) nonessential amino acids and RPMI supplemented with 2 mM glutamine, respectively. Lung adenocarcinoma A549 and colorectal carcinoma HCT116 cells were grown in RPMI (+2 mM glutamine). […]
Screening of the antiproliferative activity of 3-arylisoquinolinones was performed using the SRB assay as previously described.[56] […] Finally, the cellular protein-bound SRB was thoroughly dissolved in 10 mM Tris base, and the OD values were read at 510 nm using a plate reader (μQuant Microplate Spectrophotometer, Biotek, U.K.) coupled with Gen5 software (BioTek, U.K.). […] Cell growth was calculated using the following formula: cell growth (%) = (ODtest/ODcontrol) × 100.

Structure (SMILES) | IC50 [1] [µM] | IC50 [2] [µM] | effect on proliferation of HUVECs [3]
O=c1[nH]c(-c2ccc(F)cc2)cc2cc(F)ccc12 [compound 5, 6-Fluoro-3-(4-fluorophenyl)isoquinolin-1(2H)-one] | > 50 | > 50 | 
O=c1[nH]c(-c2cccc(F)c2)cc2cc(F)ccc12 [compound 4, 6-Fluoro-3-(3-fluorophenyl)isoquinolin-1(2H)-one] |  |  | not able to significantly diminish the proliferation of HUVECs
